From US20170157161A1, “Anti-Cancer Therapies” (Threshold Pharmaceuticals, Inc., priority 2015, published 2017)

What was measured:
[1] = system: advanced pancreatic cancer; details: patients with advanced pancreatic cancer; cited from earlier work
[2] = system: pancreatic cancer cell lines; details: in vitro; cited from earlier work
[3] = system: As-PC-1 human pancreatic cancer cells; test: As-PC-1 human pancreatic tumor model in NMRI nu/nu mice; type: in vivo; details: glufosfamide i.v. and gemcitabine 1.25 mg/kg i.p., alone or in combination, once daily for 7 days
Experimental: (§1) A combination of glufosfamide and gemcitabine was administered daily for 7 days to female NMRI nu/nu mice that were carrying tumors derived from HS766-T or As-PC-1 human pancreatic cancer cells. Mice were administered doses of vehicle control (0.9% sodium chloride solution, i.v.), gemcitabine (i.p.), glufosfamide (i.v.) or gemcitabine/glufosfamide combinations once daily for 7 consecutive days. A dose of 1.25 mg/kg was used as the standard dose for gemcitabine throughout the study.

[4] = system: MiPaca2 human pancreatic cancer cells; test: MiPaca2 human pancreatic tumor model in nude mice; type: in vivo
Experimental: A combination of glufosfamide and gemcitabine was administered to nude mice that were carrying tumors derived from type MiPaca2 human pancreatic cancer cells. Mice were administered doses of vehicle control, gemcitabine, glufosfamide, or gemcitabine/glufosfamide combinations as tabulated in Table 1 below (10 mice/group). Glufosfamide was administered i.v., daily for 14 days (Groups 1-4 and 7-12). Gemcitabine was administered at 300 mg/kg, i.p., once a week for three weeks (Groups 6 and 10-12). Gemcitabine was administered at 150 mg/kg, i.p., twice a week for three weeks (Groups 5 and 7-9).

[5] = system: HS766-T human pancreatic cancer cells; test: HS766-T human pancreatic tumor model in NMRI nu/nu mice; type: in vivo
Experimental: as §1

Row | SMILES | activity in patients [1] | activity against pancreatic cancer cell lines [2] | inhibitory effect on tumor growth [3] | deaths of the animals ([4]; Group 5: gemcitabine 150 mg/kg i.p. twice a week for three weeks) | reduction in tumor size ([4]; Group 6: gemcitabine 300 mg/kg i.p. once a week for three weeks) | inhibitory effect on tumor progression ([5]; gemcitabine alone 1.25 mg/kg i.p. once daily for 7 days) | reduction in tumor size ([4]; Group 3: glufosfamide 30 mg/kg i.v. daily for 14 days) | reduction in tumor size ([4]; Group 4: glufosfamide 100 mg/kg i.v. daily for 14 days) | onset of tumor growth ([5]; 10 mg/kg glufosfamide i.v. once daily for 7 days, compared with gemcitabine alone or vehicle control)
1 | Nc1nc2[nH]cc(CCc3ccc(C(=O)N[C@@H](CCC(=O)O)C(=O)O)cc3)c2c(=O)[nH]1 [Pemetrexed] | has shown activity in patients with advanced pancreatic cancer | active against pancreatic cancer cell lines in vitro |  |  |  |  |  |  | 
2 | Nc1ccn([C@@H]2O[C@H](CO)[C@@H](O)C2(F)F)c(=O)n1 [gemcitabine, 2′-deoxy-2′,2′-difluoro-cytidine] |  |  | no apparent inhibitory effect on tumor growth | rapid deaths of the animals | Approximately 50% | only a marginal inhibitory effect on tumor progression |  |  | 
3 | O=P(NCCCl)(NCCCl)O[C@@H]1O[C@H](CO)[C@@H](O)[C@H](O)[C@H]1O [glufosfamide, β-D-glucosyl-ifosfamide mustard] |  |  | no apparent inhibitory effect on tumor growth |  |  |  | modest reduction in tumor size | modest reduction in tumor size | dramatic delay in the onset of tumor growth
